{"source": "patent US20190369111A1", "about": "“MOLECULAR KINETICS EVALUATION METHOD AND SCREENING METHOD” (Tokyo University of Science Foundation, priority 2016, published 2019)", "target": "T1, endogenous wild-type K-Ras protein (Homo sapiens, UniProt P01116)", "T1 construct": "an endogenous wild-type K-Ras protein and wild-type H-Ras protein in HeLa cells; endogenous in cells; host or cells: HeLa cells", "T1 sequence (P01116 1-188 isoform P01116-2)": "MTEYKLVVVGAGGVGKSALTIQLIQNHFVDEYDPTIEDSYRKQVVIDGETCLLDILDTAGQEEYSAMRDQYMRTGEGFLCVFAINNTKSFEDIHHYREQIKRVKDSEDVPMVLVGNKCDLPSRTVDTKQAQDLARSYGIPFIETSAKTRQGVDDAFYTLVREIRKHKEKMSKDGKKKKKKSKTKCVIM", "experiment": "Degradation of endogenous wild-type K-Ras protein in HeLa cells, Western blot analysis", "format": "cell-based", "conditions": "48 hours after addition", "method": "HeLa cells were seeded in a 24-well plate at a cell density of 8×10^4 cells/well, and then cultured under conditions of 37° C. and 5 vol % CO2 for 16 hours.\nAfter 16 hours from cell seeding, TUS-007 was added to HeLa cells as follows. As a medium, a serum-free medium (37° C.) in which 1 mass % L-glutamine solution (Sigma-Aldrich) was added to D-MEM (high D-glucose, phenol red, sodium pyruvate (Wako Pure Chemical Industries, Ltd.)) was used. It is noted that the L-glutamine solution was added immediately before use. A DMSO solution containing TUS-007 was mixed with the medium so that the concentration of DMSO was 1 vol %, and added to each well at 500 μL/well, and cultured under conditions of 37° C. and 5 vol % CO2. As a control, DMSO was used.\nThe medium was removed 48 hours after addition of TUS-007, and then PBS was added to wash the cells. […]\nAfter electrophoresis, proteins were transferred to a PVDF membrane (Immobion™-P, Millipore) under conditions of 100 V and 2 hours using a tank-type blotting device and a transfer buffer (25 mM Tris-HCl, 195 mM glycine, 0.01% SDS, 15% methanol). […] Subsequently, the membrane was treated with a chemiluminescence reagent Immobilon™ Western (Millipore), and then chemiluminescence was detected using a lumino image analyzer LAS-3000 (FUJIFILM Corporation). […]", "data": [{"smiles": "CC[C@@H](C)[C@H](NC(=O)CCCCCCNC(=O)[C@H](CC(C)C)NC(=O)CNC(=O)c1cc(Cl)ccc1Cl)C(=O)Nc1ccc2[nH]c(Cc3c[nH]c4ccccc34)nc2c1", "note": "[TUS-007]", "values": [{"measurement": "amount of endogenous wild-type K-Ras protein", "result": "reduced"}]}]}
